Entries after “also recorded” stand apart in the source; their conditions may differ.
How the values were obtained:
[1] = test system: HSPCs (LKS+); assay: Bone marrow HSPC proliferation by EdU incorporation and flow cytometry; assay type: in vivo; conditions: 150 mg/kg oral gavage, mice
Experimental: . JCNI 2012; 104(6):476-487 (FIG. 2A). […].
Mice were then sacrificed at the indicated times (0, 12, 24, 36, or 48 hours following compound administration), and bone marrow was harvested (n=3 mice per time point), as previously described (Johnson et al. J. Clin. Invest. (2010) 120(7), 2528-2536). Four hours before the bone marrow was harvested, mice were treated with 100 μg of EdU by intraperitoneal injection (Invitrogen). Bone marrow mononuclear cells were harvested and immunophenotyped using previously described methods and percent EdU positive cells were then determined (Johnson et al. J. Clin. Invest. (2010) 120(7), 2528-2536). In brief, HSPCs were identified by expression of lineage markers (Lin−), Sca1 (S+), and c-Kit (K+).
Four hours before animals were sacrificed and the bone marrow was harvested, mice were treated with 100 μg of EdU by intraperitoneal injection. Three mice per group were sacrificed at 12 hours and the remaining three animals per group were sacrificed at 24 hours. Results are shown in FIG. 5A as the ratio of EdU positive cells for treated animals at 12 or 24 hour time points compared to control.
Further experiments were completed with Compound T examining dose response and longer periods of compound treatment. […] […].
Both compounds were administered at 150 mg/kg by oral gavage. One hour prior to harvesting bone marrow, EdU was IP injected to label cycling cells. Bone marrow was harvested at 12, 24, 36, and 48 hours after compound treatment and the percentage of EdU positive HSPC cells was determined at each time point.

[2] = test system: MMTV-c-neu (Rb-positive) tumors; assay: MMTV-c-neu HER2-driven (Rb-positive) luminal breast cancer mouse model; assay type: in vivo, mice
Text: A HER2-driven model (Rb-positive) of breast cancer (Muller W J, Sinn E, Pattengale P K, Wallace R, Leder P. Single-step induction of mammary adenocarcinoma in transgenic mice bearing the activated c-neu oncogene. Cell 1988; 54: 105-15), that expresses c-neu (the mouse ortholog of human HER2) driven by the MMTV promoter was used in the following example. This model was chosen because previous studies in murine (Yu Q, Geng Y, Sicinski P. Specific protection against breast cancers by cyclin D1 ablation. Nature 2001; 411: 1017-21; Landis M W, Pawlyk B S, Li T, Sicinski P, Hinds P W. Cyclin D1-dependent kinase activity in murine development and mammary tumorigenesis. Cancer Cell 2006; 9: 13-22; Reddy H K, Mettus R V, Rane S G, Grana X, Litvin J, Reddy E P. Cyclin-dependent kinase 4 expression is essential for neu-induced breast tumorigenesis. Cancer Res 2005; 65: 10174-8; Yu Q, Sicinska E, Geng Y, Ahnstrom M, Zagozdzon A, Kong Y, et al. Requirement for CDK4 kinase function in breast cancer. Cancer Cell 2006; 9: 23-32.) and human HER2-positive breast cancer (An H X, Beckmann M W, Reifenberger G, Bender H G, Niederacher D. Gene amplification and overexpression of CDK4 in sporadic breast carcinomas is associated with high tumor cell proliferation. Am J Pathol 1999; 154: 113-8; Samady L, Dennis J, Budhram-Mahadeo V, Latchman DS. Activation of CDK4 gene expression in human breast cancer cells by the Brn-3b POU family transcription factor. Cancer Biol Ther 2004; 3: 317-23; Takano Y, Takenaka H, Kato Y, Masuda M, Mikami T, Saegusa M, et al. Cyclin D1 overexpression in invasive breast cancers: correlation with cyclin-dependent kinase 4 and oestrogen receptor overexpression, and lack of correlation with mitotic activity.
MMTV-neu mice were generated and observed post-lactation, with tumors observed with a median latency of approximately 25 weeks. Mice were enrolled in therapy studies when tumors reached a standard size (50-60 mm3) that permitted easy serial assessment. […] Tumor volumes were calculated by the formula, Volume=[(width)^2×length]/2. Tumor-bearing mice were euthanized at the indicated times due to predefined morbidity, tumor ulceration, or a tumor size of more than 1.5 cm in diameter.
Tumors were serially assessed weekly using caliper measurements. Therapeutic intervention began once tumors reached 40-64 mm^3. Tumor volume was calculated using the formula […]. All three compounds were administered orally via medicated diets (100 mg/kg/d). Medicated diets were administered for 28 consecutive days and then stopped. RECIST criteria were used to assess objective response rates.

[3] = test system: tHS68 cells (CDK4/6-dependent, Rb-positive); assay: Cell cycle arrest (propidium iodide flow cytometry), tHS68; assay type: cell-based; conditions: 24 hours
Text: (§1) To test the ability of CDK4/6 inhibitors to induce a clean G1-arrest, a cell based screening method was used consisting of two CDK4/6-dependent cell lines (tHS68 and WM2664; Rb-positive) and one CDK4/6-independent (A2058; Rb-negative) cell line. […] At the conclusion of the experiment, cells were harvested, fixed, and stained with propidium iodide (a DNA intercalator), which fluoresces strongly red (emission maximum 637 nm) when excited by 488 nm light. Samples were run on Dako Cyan flow cytometer and >10,000 events were collected for each sample. Data were analyzed using FlowJo 2.2 software developed by TreeStar, Inc.

[4] = test system: WM2664 cells (CDK4/6-dependent, Rb-positive); assay: Cell cycle arrest (propidium iodide flow cytometry), WM2664; assay type: cell-based; conditions: 300 nM, 24 hours
Text: as §1

[5] = test system: A2058 cells (CDK4/6-independent, Rb-negative); assay: Cell cycle arrest (propidium iodide flow cytometry), A2058; assay type: cell-based; conditions: 300 nM, 24 hours
Text: as §1

[6] = test system: Rb phosphorylation at Ser780 and Ser807/811 in A2058; assay: Rb phosphorylation western blot, CDK4/6-independent cell line; assay type: cell-based; conditions: 300 nM; 4, 8, 16, 24 hours
Experimental: MAPK levels are shown as a control for protein levels. Following treatment, cells were harvested and analyzed for Rb-phosphorylation by western blot analysis.
The CDK4/6-cyclin D complex is essential for progression from G1 to the S-phase of the DNA cell cycle. This complex phosphorylates the retinoblastoma tumor suppressor protein (Rb). […] Samples were lysed and protein was assayed by western blot analysis. Rb phosphorylation was measured at two sites targeted by the CDK4/6-cyclin D complex, Ser780 and Ser807/811 using species specific antibodies.

**Q.** Which results are given for `CN1CCN(c2ccc(Nc3ncc4cc5n(c4n3)C3(CCCCC3)CNC5=O)nc2)CC1` [T]?
**A.** EdU incorporation into HSPCs at 12 and 24 hours (FIG. 5A) [1]: reduction in EdU incorporation at 12 hours which was starting to return to normal at 24 hours; tumor volume during a 28 day course of therapy ([2]; 100 mg/kg/d in chow, listed as Compound T): marked reduction in tumor volume; tumor volume during a 28 day course of therapy ([2]; 100 mg/kg/d in chow, listed as compound T): marked decrease in tumor volume; objective response rate ([2]; 100 mg/kg/day medicated diet, 28 days, RECIST criteria): 100%; tumor volume during a 28 day course of therapy ([2]; 150 mg/kg/d in chow): marked reduction in tumor volume; cell cycle distribution after treatment ([3]; 300 nM, tHS68): causes a loss of the S-phase peak; S-phase cells at the highest concentration shown ([3]; tHS68 cells, 28% at baseline): 6%; cell cycle distribution after treatment [4]: causes a loss of the S-phase peak; cell cycle distribution after treatment [5]: no effect; also recorded: does not cause a loss of the S-phase peak; Rb phosphorylation in CDK4/6-independent cells (A2058) [6]: no effect

Source: US9527857B2, “HSPC-sparing treatments for RB-positive abnormal cellular proliferation” (G1 Therapeutics, Inc., priority 2013, dated 2016)
